Laboratory results published in patent US7625917B2, “Thiolesters and uses thereof” (priority 1998, dated 2009).

Experiments:
[1] = molecular target: T1, recombinant HIV-1 protease (Human immunodeficiency virus type 1 group M subtype B, UniProt P03366); assay: HIV-1 protease substrate cleavage (HPLC) assay; assay type: biochemical
T1 construct: recombinant HIV-1 protease
Method: The 5-bromovaleroyl thioester, compound 44, and two 5-pyridiniovaleroyl thioesters, compounds 45and 47, were analyzed in mechanistic and target-based assays. […] Assays for activity against HIV-1 reverse transcriptase rAdT (template/primer) and rCdG (template/primer) using recombinant HIV-1 reverse transcriptase (S. Hughes, ABL Basic Research NCI-FCRDC, Frederick Md.) were performed as described by Rice (1997) supra. Substrate cleavage of recombinant HIV-1 protease in the presence of test compounds using an HPLC-based methodology with the artificial substrate Ala-Ser-Glu-Asn-Try-Pro-Ile-Val-amide (Multiple Peptide Systems, San Diego Calif.) was performed as described by Rice (1997) supra. The ability of recombinant HIV-1 integrase (S. Hughes, ABL Basic Research NCI-FCRDC, Frederick Md.) to carry out 3′ processing and strand transfer activities in the presence of test compounds was performed as described by Buckheit (1994) AIDS Res. Hum. Retroviruses 10:1497-1506, and Turpin (1998) Antimicrob. Agents Chemother. 42: 487-494.

[2] = molecular target: NCp7 (Human immunodeficiency virus type 1 group M subtype B, UniProt P03347); assay: NCp7 oligonucleotide binding EMSA; assay type: biochemical, HIV-1; details: for concentration at which NCp7-oligonucleotide complex formation was inhibited: EMSA
Method: Zinc finger reactivity was measured using a Zn specific fluorochrome, TSQ, N-(6-methoxy-8-quinolyl)-p-toluenesulfonamide, assay or a Trp37 zinc finger fluorescence assay. Fluorescent measurements of the Trp37 residue in the C-terminal finger of recombinant HIV-1 NCp7 protein were performed as described by Rice (1995) Science 270:1194-1197; Rice (1997) Antimicrob. Agents Chemother. 41:419-426. Measurement of Zn ejection from both fingers was measured using the Zn-selective fluorchrome probe TSQ (Molecular Probes, Eugene Oreg.) as described by Rice (1996) J. Med. Chem 39:3606-3616. Measurement of the ability of NCp7 to bind to a DNA oligomer, a 44 mer: GGCGACTGGTGAGTACGCCAAAAATTTTGACTAGCGGAGGCTAG (SEQ ID NO:1), analogous to the HIV-1 RNA packaging site was carried out as described by Huang (1998) J. Med. Chem. 41:1371-1381, see also, Rossio (1998) HIV Pathogenesis and Treatment: Keystone Symposium on Molecular and Cellular Biology, Abstract # 4082. Briefly, 50 nM NCp7 was treated with test compounds for 1 hour at RT in […] buffer containing 10% glycerol and 50 mM Tris-HCl (pH 7.5). Labeled oligomer (0.1 picomole, end labeled [^32P] was added in an equal volume of buffer containing 10% glycerol, 50 mM Tris-HCl (pH 7.5), 400 mM KCl and 40 mM MgCl2. The reaction was continued for 15 min at room temperature, and a total of […] (or ¼ of the total reaction volume) was separated on nondenaturing 4.5% polyacrylamide gels in 0.5× Tris-Borate electrophoresis buffer. NCp7-oligomer complexes were visualized by autoradiography.
Interaction of zinc finger inhibitors with NCp7 can result in loss of protein structure and their ability to specifically bind oligonucleotides representing the HIV-1ψpackaging site (Huang (1998) supra; Tummino (1997) Antimicrob. Agents Chemother. 41:394-400; South (1993) Protein Sci. 2:3-19; Dannull (1994) EMBO J. 13:1525-1533). The ability of NCp7 to specifically associate with these oligonucleotides after treatment of the protein with a thiolester of the invention was tested. For example, compounds 44, 45 or 47 were very effective at inhibiting Ncp7's ability to associate with target oligonucleotide, as determined using electrophoretic mobility shift assays (EMSA) on nondenaturing polyacrylamide gels. At 1 μM, compound 45 inhibited complex formation. Compounds 44 and 47 inhibited complex formation at 100 μM (see Table 9).

[3] = test system: HIV-1NL4-3; assay: Virucidal (viral inactivation) assay on MAGI-CCR-5 cells; assay type: cell-based
Method: The cell-based p24 attachment assay was performed as described in Rice (1995) Science 270:1194-1197. Viral inactivation assays were carried out as described in Rice (1995) Science 270:1194-1197, and Turpin (1997) supra, with minor modifications. Briefly, MAGI-CCR-5 cells were plated (4×10^4 cells per well) in flat bottomed 2-cm well plates for 24 h, after which the culture media was removed and compound-treated virus was added. The virus used was obtained by transient transfection of pNL4-3 into HeLa cells yielding the replication competent NL4-3 virus. Virus containing supernatants were treated for 2 h at 37° C. after which residual compound was removed by centrifugation (18,000×g, 1 h, 4° C.). Virus pellets were resuspended and placed on the MAGI-CCR-5 monolayers and cultured for 48 h. Monolayers were fixed and stained with X-gal solution and blue cells counted.
NCp7 cross-linking is associated with viral inactivation. Whether the ability to crosslink the nucleocapsid protein, as determined by Western blotting, correlated with the ability to inactivate the viruses was tested in a virucidal assay. Virus stocks of HIV-1NL4-3 were incubated with various thiolester compounds. The virus was obtained by transient transfection of a replication-competent pNL4-3 plasmid into HeLa cells. Residual thiolester was removed by centrifugation. […]

[4] = test system: HIV-1RF; assay: XTT cytoprotection assay (antiviral activity); assay type: cell-based
Excerpt: One exemplary means to determine antiviral activity is with CEM-SS cells and virus (e.g., HIV-1RF) (MOI=0.01) using the XTT (2,3-bis[2-methoxy-4-nitro-5-sulfophenyl]-5-[(phenylamino)carbonyl]-2H-tetrazolium hydroxide) cytoprotection assay, as described by Rice (1993) PNAS 90:9721-9724, and Rice (1997) Antimicrob. Agents Chemother. 41:419-426. Briefly, cells are infected with HIV-1 RF (or other virus to be tested) in the presence of various dilutions of test compounds (thiolesters and controls). The cultures are incubated for seven days. During this time control cultures without protective compounds (i.e., compounds with anti-viral activity) replicate virus, induce syncytia, and result in about 90% cell death. The cell death is measured by XTT dye reduction. XTT is a soluble tetrazolium dye that measures mitochondrial energy output, similar to MTT. Positive controls using dextran sulfate (an attachment inhibitor) or 3′-Azido-2′-3′-dideoxythymidine, AZT (a reverse transcriptase inhibitor) are added to each assay. Individual assays are done in duplicate using a sister plate method.
Effective antiviral concentrations providing 50% cytoprotection (EC50), and cellular growth inhibitory concentrations causing 50% cytotoxicity (IC50) are calculated.

Row | Structure (SMILES) | inhibition of HIV-1 protease (in words) [1] | concentration at which NCp7-oligonucleotide complex formation was inhibited [2] | IC50 [1] | IC50 [2] | potency at inactivating virus vs compounds 44 and 45 [3] | antiviral activity (in words) [4] | EC50 ([4]; Human immunodeficiency virus 1, Table 6, read-out: EC50 %) | virucidal activity (in words) [3]
1 | CC(=O)NS(=O)(=O)c1ccc(NC(=O)c2ccccc2SC(=O)CCCCBr)cc1 [Compound 44, N-[2-(5-bromovaleroylthio)benzoyl]sulfacetamide] | did not inhibit | 100 µM |  |  |  |  |  | 
2 | CC(=O)NS(=O)(=O)c1ccc(NC(=O)c2ccccc2SC(=O)CCCC[n+]2ccccc2)cc1 [Compound 45, N-[2-(5-pyridinio-valeroylthio)benzoyl]sulfacetamide bromide] | did not inhibit | 1 µM |  |  |  |  |  | 
3 | O=C(CCCC[n+]1ccccc1)Sc1ccccc1C(=O)Nc1ccc(S(=O)(=O)c2ccc([N+](=O)[O-])cc2)cc1 [Compound 47] | did not inhibit | 100 µM | > 100 µM | 100 µM | approximately 6 fold |  |  | 
4 | O=C(O)CCCC[n+]1ccccc1.[Br-] [Compound 53, 5-pyridiniovaleric acid] |  |  |  |  |  | without antiviral activity | > 316 µM | Neither intravirion cross-linkage of NCp7 nor virucidal activity were detected
